Assay results: patent US8491897B2, “Treatment of neuropathic pain using anti-thrombospondin antibodies” (The Board of Trustees of the Leland Stanford Junior …, priority 2007, dated 2013)
“Also recorded” adds a separate entry of the source.

Legend:
[1] = tested on: glutamatergic excitatory synapses in the cortex; experiment: Synapse assay on mouse brain sections (VGlut2/PSD95 co-localized puncta in cortex) after GBP injection; assay type: in vivo, mice
Description: To determine whether GBP similarly blocks synapse formation in vivo, neonatal mice were injected with either GBP or saline, for the first postnatal week, which coincides with the initiation of synapse formation in the brain (see Experimental Procedures). […] At this age P7 glutamatergic synapses in the cortex are predominantly VGlut2 positive (Miyazaki et al., The Eur. J. of Neuroscience, 17:2563-2572, 2003). Therefore, co-immunostaining of sagital brain sections from (P7) saline or GBP-injected, mice was carried out with antibodies against VGlut2 and PSD95 and the number of co-localized pre- and post-synaptic puncta was quantified to determine synaptic density in the cortex of these mice. […] This difference was mainly due to a severe decrease in synapse number in half of the GBP injected animals. […] GBP injection affected both VGlut2 and PSD95 puncta by reducing their number, size, and co-localization (FIG. 7E) similar to its effect on synaptic puncta in vitro (FIG. 7A). […] It is interesting that the effect of GBP in vivo is an “all or none” effect rather than a gradual decrease in synapse number, and that only 50% of the mice responded to GBP injection. This could be due to a critical threshold concentration of GBP necessary to be effective in blocking synapse formation, which might only be achieved in some of the mice. In three repeated experiments, however, we observed only half of the mice were affected by GBP, even when we increased the total dosage and frequency from once a day to three times per day (see below and Experimental Procedures), and even though an inbred strain of mice was used.
Brains were immersed in 4% paraformaldehyde (PFA), fixed overnight at 4° C., and cryo-protected in 30% sucrose. For synaptic staining, tissue was embedded in a 2:1 mixture of 20% sucrose:OCT in PBS, and cryo-sectioned (12 μm). Sections were dried at 37° C., washed three times in PBS, and blocked with 20% normal goat serum (NGS, Invitrogen) in PBS 1 hr. Primary antibodies were diluted in PBS with 0.3% triton and 10% NGS as follows: PSD95 (Zymed, rabbit, 1:500) and VGlut1 and VGlut2 (Chemicon, guinea pig, 1:2500) incubated overnight at 4° C. […]
Three independent sagital brain sections per animal were stained with pre- and post-synaptic markers and 5 μm confocal scans were performed (optical section width 0.38 μm, 14 optical sections each) at the cortex. […] Merged single optical section images at 1 μm intervals were analyzed using the ImageJ-puncta analyzer option to count for number of co-localized pre- and post-synaptic puncta (5 optical sections per brain section and 15 total images per brain). Average synaptic density per imaged area was calculated for each condition. […]

[2] = Weight gain and general health of injected pups; assay type: in vivo, mice; details: 400 mg/kg daily or 200 mg/kg three times a day i.p., vs saline
Description: In three independent experiments, two litters of wild type mice (n=3×12, FVB background) were given daily intraperitoneal injections of either a single dose of 400 mg/kg of GBP (Sigma-Aldrich) or a matching volume of saline solution (PBS). In one experiment the mice were injected with 200 mg/kg GBP (n=6) three times a day and the controls received the same volume of saline solution (n=6). […] Samples were blinded during analysis of the barrel cortex plasticity.

naive rats = experiment: TSP4-induced behavioral hypersensitivity in naive rats (paw withdrawal threshold, von Frey); assay type: in vivo, rat; details: 1 mg/rat bolus i.t., three days after TSP4 (45 ug/rat)
RGCs [3] = details: culture media containing GBP
RGCs [4] = experiment: RGC neurite outgrowth; details: data not shown
RGCs [5] = tested on: RGCs

Q: With `NCC1(CC(=O)O)CCCCC1` [Gabapentin, 1-(aminomethyl)cyclohexaneacetic acid] as the compound, how does the “proportion of injected mice that responded (severe reduction of synaptic puncta)” value ([1]; P7 mice) read?
A: Its value is 50%.

Q: And the “density of VGlut2/PSD95 excitatory synapses in the cerebral cortex” value ([1]; P7 mice injected i.p. daily in first postnatal week, vs saline, listed as GBP)?
A: The value was “significant decrease in the density of excitatory synapses; also recorded: significant decrease in the number of VGlut2-PSD95 synapses”.

Q: And the “VGlut2/PSD95 synaptic density relative to saline injected values” ([1]; in the half of the mice that responded)?
A: Its value is “less than 10%”.

Q: What about the number of neurons ([1]; responding mice) of the same compound?
A: The number of neurons was “no apparent effect on the number of neurons”.

Q: What about the “weight gain and general health” value [2] of the same compound?
A: The value was “showed no differences”.

Q: And the “effect on TSP4-induced behavioral hypersensitivity” value (naive rats)?
A: Its value is “blocked the pain-inducing effects of TSP4”.

Q: What about the RGC survival (RGCs [3]) of the same compound?
A: Its RGC survival is 66.5±4.1%.

Q: And the neurite outgrowth (RGCs [4])?
A: Its neurite outgrowth is “did not affect neurite outgrowth”.

Q: What about the “toxicity to the RGCs” value (RGCs [5]) of the same compound?
A: The value was “not toxic”.
